Assay [1] has as its target T1, human FSH receptor (Homo sapiens, UniProt P23945).
T1 construct: expressed in transfected cells; host or cells: CHO cells, transfected with luciferase reporter gene
T1 sequence (P23945 18-695): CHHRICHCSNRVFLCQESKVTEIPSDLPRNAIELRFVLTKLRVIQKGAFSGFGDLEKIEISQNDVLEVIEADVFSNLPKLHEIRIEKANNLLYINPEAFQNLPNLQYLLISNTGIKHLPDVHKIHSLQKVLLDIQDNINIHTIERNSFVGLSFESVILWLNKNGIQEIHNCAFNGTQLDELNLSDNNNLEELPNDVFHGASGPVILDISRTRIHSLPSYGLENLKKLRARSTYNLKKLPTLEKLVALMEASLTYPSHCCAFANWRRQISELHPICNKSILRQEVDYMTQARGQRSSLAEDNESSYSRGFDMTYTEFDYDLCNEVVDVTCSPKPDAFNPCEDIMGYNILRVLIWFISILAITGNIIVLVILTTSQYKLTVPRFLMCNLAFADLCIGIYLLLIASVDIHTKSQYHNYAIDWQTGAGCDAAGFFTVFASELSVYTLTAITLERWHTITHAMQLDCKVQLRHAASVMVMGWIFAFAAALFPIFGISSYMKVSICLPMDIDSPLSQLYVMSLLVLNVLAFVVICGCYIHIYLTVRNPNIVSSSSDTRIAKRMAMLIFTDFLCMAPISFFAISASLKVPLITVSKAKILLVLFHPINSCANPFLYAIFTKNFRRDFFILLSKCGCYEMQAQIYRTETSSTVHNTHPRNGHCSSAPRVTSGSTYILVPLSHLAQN
In words: CHO-FSH in vitro bioactivity (CRE-luciferase reporter). The class given is cell-based. The conditions noted are these: CHO cells transfected with the human FSH receptor and luciferase reporter gene; read-out: EC50 CHO FSHR. As for the experimental part:
(§1) It has been shown that compounds of the above mentioned formula I show agonistic LH and FSH activity. […] Typically the FSH activity ranges from an activity of about 1% of the LH agonist stimulation to about 10% of the LH agonist stimulation.
(§2) LH agonistic activity of compounds were tested in Chinese Hamster Ovary (CHO) cells stably transfected with the human receptor and cotransfected with a cAMP responsive element (CRE)/promotor directing the expression of a firefly luciferase reporter gene. Binding of ligand to the Gs-coupled LH receptor will result in an increase of cAMP, which in turn will induce an increased transactivation of the luciferase reporter construct. The luciferase signal was quantified using a luminescence counter. For test compounds, EC50 values (concentration of test compound causing half-maximal (50%) stimulation) were calculated. For that purpose the software program GraphPad PRISM, version 3.0 (GraphPad software Inc., San Diego) was used.
In a similar way FSH agonistic activity of compounds was tested in CHO cells transfected with the luciferase reporter gene and the human FSH receptor.

In assay [2] the target is T2, human LH receptor (Homo sapiens, UniProt P22888).
T2 construct: expressed in transfected cells; host or cells: CHO cells, cotransfected with CRE/promotor-luciferase reporter
In words: CHO-LH in vitro bioactivity (CRE-luciferase reporter). The class given is cell-based. The conditions noted are these: CHO cells stably transfected with the human LH receptor, read-out: EC50 CHO LHR. As for the experimental part:
as §1, §2

For assay [3], the system named is immature female mice. In words: In vivo bioactivity: ovulation induction in immature mice. To be noted: immature female mice primed with urinary FSH (Humegon 12.5 IU/animal), ova in the oviduct counted 24 hours after treatment. As for the experimental part: To measure LH in vivo activity of compounds, ovulation induction in immature mice can be studied. In this assay immature female mice are primed with urinary FSH and approximately 48 hours later treated with a LH agonistic compound. The animals are killed after LH agonist treatment and the number of ova in the oviduct is microscopically assessed.
To measure in vivo activity of LH/FSH receptor agonistic compounds ovulation induction in immature mice was studied. In this assay immature female mice were primed with urinary FSH (Humegon 12.5 IU/animal). Approximately 48 hours later the animals were treated with a LH/FSH agonistic compound at a dose-level of 50 mg/kg. The animals were killed 24 hours after LH/FSH agonist treatment and the number of ova in the oviduct was microscopically assessed.

Molecules are shown by their SMILES.

This note sets out measurements from US7317006B2, “Thieno[2,3-d]pyrimidines with combined LH and FSH agonistic activity” (N.V. Organon, priority 2001, dated 2008).

T2 sequence (P22888 27-699): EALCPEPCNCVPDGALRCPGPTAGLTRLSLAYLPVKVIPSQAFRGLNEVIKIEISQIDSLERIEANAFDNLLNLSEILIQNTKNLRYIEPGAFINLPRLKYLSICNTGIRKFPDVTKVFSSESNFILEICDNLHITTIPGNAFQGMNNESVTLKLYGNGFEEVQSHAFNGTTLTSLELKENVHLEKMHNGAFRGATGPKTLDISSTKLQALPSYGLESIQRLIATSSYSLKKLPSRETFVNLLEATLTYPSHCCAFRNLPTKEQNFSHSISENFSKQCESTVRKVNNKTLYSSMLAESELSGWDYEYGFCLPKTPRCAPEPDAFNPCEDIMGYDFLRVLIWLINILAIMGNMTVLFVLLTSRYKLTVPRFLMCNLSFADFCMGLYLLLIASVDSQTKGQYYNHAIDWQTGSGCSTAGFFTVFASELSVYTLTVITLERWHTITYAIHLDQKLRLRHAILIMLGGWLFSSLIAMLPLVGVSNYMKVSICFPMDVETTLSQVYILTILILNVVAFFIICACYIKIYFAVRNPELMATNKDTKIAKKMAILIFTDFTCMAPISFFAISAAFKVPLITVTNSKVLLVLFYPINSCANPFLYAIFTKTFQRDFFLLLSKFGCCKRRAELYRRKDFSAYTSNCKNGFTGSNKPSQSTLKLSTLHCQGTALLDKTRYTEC

As to `CSc1nc(-c2cccc(NC(=O)CN3CCCCC3)c2)c2c(N)c(C(=O)NC(C)(C)C)sc2n1` [Example 4, tert-Butyl 5-amino-2-methylthio-4-(3-(2-(piperidin-1-yl)-acetamido)-phenyl)-thieno[2,3-d]pyrimidine-6-carboxamide], the EC50 in assay [1] is 201 nM; in assay [2] it was 6.63 nM.

As for `CSc1nc(-c2cccc(NC(=O)CN3CCSCC3)c2)c2c(N)c(C(=O)NC(C)(C)C)sc2n1` [Example 3, tert-Butyl 5-amino-2-methylthio-4-(3-(2-(thiomorpholin-4-yl)-acetamido)-phenyl)-thieno[2,3-d]pyrimidine-6-carboxamide], the “mean no. of ova (50 mg/kg p.o.)” value in assay [3] was 19.8. Also, the half-maximal effective concentration (EC50) stood at 1040 nM in assay [1] and 8.03 nM in assay [2].

Consider `CSc1nc(-c2cccc(NC(=O)CN3CCCC3)c2)c2c(N)c(C(=O)NC(C)(C)C)sc2n1` [Example 5, tert-Butyl 5-amino-2-methylthio-4-(3-(2-(pyrrolidin-1-yl)-acetamido)-phenyl)-thieno[2,3-d]pyrimidine-6-carboxamide], for which the values for the EC50 in assay [1] and in assay [2] were 480 nM and 6.68 nM, respectively.

On to `CSc1nc(-c2cccc(NC(=O)CN3CCOCC3)c2)c2c(N)c(C(=O)NC(C)(C)C)sc2n1` [Example 2, tert-Butyl 5-amino-2-methylthio-4-(3-(2-(morpholin-4-yl)-acetamido)-phenyl)-thieno[2,3-d]pyrimidine-6-carboxamide], for which, in assay [3], the “mean no. of ova (50 mg/kg p.o.)” value amounted to 9.3. Further, the EC50 came to 42 nM in assay [1] and 2.24 nM in assay [2].

`CSc1nc(-c2cccc(NC(=O)CN3CCNCC3)c2)c2c(N)c(C(=O)NC(C)(C)C)sc2n1` [Example 6, tert-Butyl 5-amino-2-methylthio-4-(3-(2-(piperazin-1-yl)-acetamido)-phenyl)-thieno[2,3-d]pyrimidine-6-carboxamide]: the EC50 in assay [1] turned out to be 150 nM; in assay [2], 3.17 nM.

In the case of `CSc1nc(-c2cccc(NC(=O)CN3CCC3)c2)c2c(N)c(C(=O)NC(C)(C)C)sc2n1` [Example 1, tert-Butyl 5-amino-2-methylthio-4-(3-(2-(azetidin-1-yl)-acetamido)-phenyl)-thieno[2,3-d]pyrimidine-6-carboxamide], the “mean no. of ova (50 mg/kg p.o.)” value in assay [3] was found to be 1.6. The half-maximal effective concentration (EC50) in assay [1] is 462 nM; in assay [2] it was 3.86 nM.
